This is an account of results in patent publication US20070244077A1, “COMPOSITION AND METHOD OF TREATING PERIPHERAL NEUROPATHY” (priority 2006, published 2007).

Common to all, as to assay type: in vivo, rat
Experiment [1] concerns streptozotocin-induced diabetic rats. Nature of the experiment: Tactile allodynia, 50% withdrawal force to von Frey filaments in experimentally diabetic rats. The conditions noted are these: for prevention of tactile allodynia (result in words): 3 months of treatment, diabetic rats, FIG. 2, aspirin 0.3 mg/kg, VIT E 4 g/kg diet, AMG 3 g/kg diet, PJ-34 20 mg/kg daily in drinking water; for animals in which development of tactile allodynia was prevented: SFZ 150 mg/kg BW daily in drinking water, vs non-treated diabetic group. From the text: Streptozotocin-induced diabetic rats (6-8 animals per group) were either left untreated or subjected to treatment with SFZ for up to 9 months. The presence of tactile allodynia was investigated at different time-points. […] Diabetic rats were either left untreated or subjected to treatment with either SFZ, the PARP inhibitor PJ-34, vitamin E (Vit E), or aminoguanidine (AMG) for 3 months. […] Experimentally diabetic rats display tactile allodynia (i.e., the perception of non-painful stimuli as painful), as evidenced by a significant decrease in the 50% withdrawal force (force at which there is a 50% probability of withdrawal) to von Frey filaments (FIGS. 1 and 2). The tactile allodynia was evident as early as 1 month after induction of diabetes and persisted throughout the experimental period (FIG. 1). Importantly, when compared to the non-treated diabetic group, administration of SFZ (150 mg/kg BW, daily, added to drinking water) prevented the development of tactile allodynia in either 50% or 80-100% of the animals after one or three months of treatment, respectively. We compared the effect of SFZ treatment on tactile allodynia in experimentally diabetic rats with those elicited by other salicylates (i.e. aspirin, 0.3 mg/kg), by the anti-oxidants Vitamin E (VIT E; 4 g/kg diet) and by aminoguanidine (AMG; 3 g/kg diet) and by the poly-ADP ribose-polymerase (PARP) inhibitor PJ-34 (20 mg/kg, daily, added to drinking water).

Experiment [2] has the same test system. Nature of the experiment: Mechanical hyperalgesia, Randall and Selitto test in streptozotocin-induced diabetic rats. The conditions noted are these: results not shown. From the text:
Experimentally diabetic rats display nociceptive alterations in addition to tactile allodynia.

For a further experiment, the system named is NO. As to the kind of experiment: NO levels (nitrate+nitrite, fluorometric assay kit) in sciatic nerve extracts of diabetic rats. As to conditions: sciatic nerves; SFZ 200 mg/Kg BW daily for 9 months; mean ± SD of 3 animals. As for the experimental part: (§1) NO levels were assayed in extracts from sciatic nerves (epineurium-free) by measuring the stable metabolites of NO (nitrate+nitrite) using a fluorometric assay kit. At the same time, the levels of PGE2 were evaluated by ELISA using a commercial kit (Cayman Chemical). In parallel samples, we also performed an immunoblot analysis to investigate possible changes in the expression of COX-2, one of the enzymes that convert arachidonic acid into PGE2.

The next experiment relates to adenosine derivatives. Nature of the experiment: Reverse-phase HPLC of adenosine derivatives (inosine, AMP) in sciatic nerve extracts of diabetic rats. As to conditions: total sciatic nerves; SFZ 200 mg/Kg BW daily for 9 months; mean ± SEM of 4 animals. The source says: Administration of either adenosine or of adenosine kinase or adenosine deaminase inhibitors appears to increase nociception thresholds. Two studies have reported that acute administration of either adenosine or adenosine kinase inhibitors can prevent some nerve abnormalities in experimental diabetes. […] However, no studies have investigated the eventual changes in levels of adenosine (or its metabolites) in diabetic nerves. […] Given these precedents, and to determine whether the beneficial effects of SFZ might be mediated through changes in adenosine levels, we measured the levels of this nucleoside in sciatic nerve extracts. Separation of adenosine derivatives was performed by reverse-phase HPLC in […]. This method allows proper separation of ATP, ADP, AMP, adenosine and inosine standards (FIG. 6). Under our experimental conditions we didn't detect an adenosine peak in the sciatic nerve extracts, but we typically observed small peaks corresponding to ATP and ADP and two relatively large peaks corresponding to AMP and inosine (a metabolite obtained by deamination of adenosine) (FIG. 7). The lack of an adenosine peak following fractionation of the sciatic nerve extracts is consistent with metabolism to AMP and/or with the presence of significant adenosine deaminase activity in these samples (and complete degradation to inosine and other breakdown products). […] The analysis of the elution profiles corresponding to sciatic nerve extracts prepared from normal, diabetic and SFZ-treated diabetic rats is summarized in Table 3. We observed that the SFZ-treated diabetic rats display an increase of inosine and a decrease in AMP levels. The design of these experiments could be improved to include the derivatization of samples (and increase the resolution of the ATP and ADP peaks) and/or dual analysis of samples to improve separation of overlapping components.

A further experiment deals with PGE2. Nature of the experiment: PGE2 levels by ELISA in sciatic nerve extracts of diabetic rats. As to conditions: sciatic nerves; SFZ 200 mg/Kg BW daily for 9 months; mean ± SD of 3 animals. How it is done:
as §1

The test system of the next experiment is COX-2. Nature of the experiment: Immunoblot of COX-2 expression in sciatic nerve extracts of diabetic rats. The conditions noted are these: normal vs diabetic vs SFZ-treated diabetic animals, FIG. 5. As for the experimental part: as §1
The test system of the next experiment is p65 NFkB. As to the kind of experiment: Western blot of p65 NFkB expression in sciatic nerves of diabetic rats. The conditions noted are these: 3-month SFZ-treated diabetic rats, immunoblot, FIG. 3. From the text: FIG. 3 is a Western blot analysis of p65 NFkB and CREB expression in sciatic nerves from individual normal (N), 3-month diabetic (D) and 3-month SFZ-treated diabetic (S) rats. Nerve proteins were subjected to SDS-PAGE and immunoblotting with antisera against p65 NFkB (left panel) or total (CREB) and phosphorylated CREB (p-CREB) (right panel). The ratio between the levels of pCREB and total CREB, in arbitrary units, is shown at the bottom of the respective lanes (numbers underneath the lanes). Blots were also probed using anti-ERK2 to control for protein loading. We carried out preliminary studies to determine the ability of commercial antibodies to detect the p65 subunit of NFkB, phospho-CREB (p-CREB) and CREB in sciatic nerve extracts (FIG. 3), as well as the possible changes in the expression of these transcription factors during experimental diabetes. The signal detected in the immunoblots is likely to reflect the presence of these transcription factors in Schwann cells, fibroblasts and/or endothelial cells. […] We are currently performing electrophoretic mobility shift assays (EMSA) to determine whether the increased immunoreactivity of p65 NFkB in diabetic nerves is paralleled by an increase in NFkB activity. At the same time, we observed a modest decrease in the levels of p-CREB relative to total CREB in diabetic nerves (FIG. 3, right panel). […]

As to `N=C(N)NN` [AMG, aminoguanidine], the “prevention of tactile allodynia (result in words)” value in experiment [1] was “partial prevention of tactile allodynia”.

As for `CC(=O)Oc1ccccc1C(=O)O` [aspirin], the “prevention of tactile allodynia (result in words)” value in experiment [1] is on record as “partial prevention of tactile allodynia”.

Vitamin E [VIT E]: the “prevention of tactile allodynia (result in words)” value in experiment [1] is “partial prevention of tactile allodynia”.

Consider `O=C(O)c1cc(/N=N/c2ccc(S(=O)(=O)Nc3ccccn3)cc2)ccc1O` [SFZ, 5([p(2-pyridylsulfamoyl)phenyl]azo)salicylic acid], for which, in experiment [1], the “prevention of tactile allodynia (result in words)” value is “completely prevents the development of tactile allodynia”. For the same molecule, the “animals in which development of tactile allodynia was prevented” value in experiment [1] (after one month of treatment) came to 50%. The “animals in which development of tactile allodynia was prevented” value in experiment [1] (after three months of treatment) was 80-100%. Also, the “prevention of tactile allodynia over time (result in words)” value in experiment [1] (treatment for up to 9 months, different time-points, FIG. 1) is recorded as “prevents the development of tactile allodynia”. For the same molecule, the “effect on mechanical withdrawal thresholds (mechanical hyperalgesia)” value in experiment [2] is “modest amelioration of the mechanical thresholds that was not statistically significant”. This molecule also yielded an NO in the experiment with NO of 3.08 ± 0.25 nmoles/mg protein. In the experiment on adenosine derivatives, the AMP is recorded as 2.04 ± 0.37 nmoles/mg protein, the Inosine is given as 5.25 ± 0.64 nmoles/mg protein and the Inosine/AMP was 2.71 ± 1.34. This molecule also gave a PGE2 in the experiment on PGE2 of 366 ± 220 pmoles/mg protein. In the experiment with COX-2, the “expression of COX-2 in sciatic nerve” value is “did not observe any significant changes”. Also, the “diabetes-induced increase in expression of p65 NFkB in sciatic nerves” value with p65 NFkB is “can be prevented by SFZ treatment”.

With `CN(C)CC(=O)Nc1ccc2[nH]c(=O)c3ccccc3c2c1` [PJ-34], the “prevention of tactile allodynia (result in words)” value in experiment [1] is listed as “partial prevention of tactile allodynia”.
